Tests used:
Type in all cases: cell-based
human DMD cells [1] = assay: Myotube formation (sarcomeric α-actinin immunofluorescence) in DMD muscle cells; conditions: 8 days
Protocol: (§1) Briefly, the aforementioned cells (DMD, DM1 and WT) were cultured and maintained in 75 cm 2 flasks with skeletal growth medium (Promocell skeletal muscle cell basal medium supplemented with growth factors, calf serum and P/S 1%) at 37° C. in a humidified atmosphere of 5% CO2, until 80% confluence. […] After incubation with the FN coating for 1 h at RT, cells were then seeded at 40.000 cells/well (p-24 plate) in skeletal muscle cell basal medium.
(§2) For the examples where a boron compound was added, after the previous step, different amounts of the boron compound were added in the culture medium, Promocell skeletal muscle cell basal medium).
(§3) After 24 h of culture growth medium was changed by myoblast differentiation medium (DMEM high glucose/P/S 1%, insulin 10 μg/mL) and for the examples where the boron compound was added, then different amounts of boron compound were added. Differentiation medium was changed every 2 days and if necessary, the same amount of the boron compound, as previously incorporated was also added in every change. Myotube formation was evaluated after 8 days.
(§4) Cells were fixed with formalin 4% at the end of the culture for 30 minutes at 4° C. After fixing, cells were washed and conserved at 4° C. in DPBS. Starting with the fixed cells preserved at 4° C. in DPBS, samples were then rinsed with DPBS and permeabilised with DPBS/0.5% Triton X-100 at room temperature for 5 min. Samples were then incubated with sarcomeric α-actinin primary antibody (abcam, 1:200), muscle marker for immunofluorescence detection, in blocking buffer DPBS/2% BSA at 37° C. for 1 h or overnight at 4° C. The samples were then rinsed twice in DPBS/0.1% Triton X-100 and incubated with the secondary antibody anti mouse Cy3 (Invitrogen, 1:200) in blocking buffer at room temperature for 1 h. Finally, samples were washed twice in DPBS/0.1% Triton X-100 before mounting with Vectashield containing DAPI (Vector Laboratories) and observed under an epifluorescence microscope (Nikon Eclipse 80i).
(§5) Cells were cultured and maintained in 75 cm^2 flasks with skeletal growth medium (Promocell skeletal muscle cell basal medium supplemented with growth factors, calf serum and P/S 1%) at 37° C. in a humidified atmosphere of 5% CO2, until 80% confluence. […] After incubation with the FN coating for 1 h at RT, cells were then seeded at 40,000 cells/well (p-24 plate) in Promocell skeletal muscle cell basal medium. After 24 h of culture, growth medium was changed by myoblast differentiation medium (DMEM high glucose/P/S 1%, insulin 10 μg/mL) and different amounts of bortezomib 5.4 10^−6 μg (0.0000054 μg) Ex 1.1, 2.7 10^−5 μg (0.000027 μg) Ex 1.2, 5.4 10^−5 μg (0.000054 μg) Ex 1.3, and 1.1 10^−4 μg (0.00011 μg) Ex 1.4 (all non-cytotoxic concentrations) were added to each sample in the culture medium. Differentiation medium was changed every 2 days and the different amounts of bortezomib 5.4 10^−6 μg, 2.7 10^−5 μg, 5.4 10^−5 μg and 1.1 10^−4 μg, were added to each sample in every change. Myotube formation was evaluated after 8 days. Cells were fixed as described in the control samples. Afterwards, the samples were also rinsed and washed as described in the control samples. […]

human DMD cells [2] = assay: as above; conditions: 8 days; remark: listed apart in the source
human DM1 cells = assay: Myotube formation (sarcomeric α-actinin immunofluorescence) in DM1 muscle cells; conditions: 8 days
Protocol: as §1, §2, §3, §4, §5

[3] = tested on: human WT, DMD and DM1 cells; assay: Myotube formation, across WT, DMD and DM1 cells
Protocol: Briefly, the aforementioned cells (DMD, DM1 and WT) were cultured and maintained in 75 cm 2 flasks with skeletal growth medium (Promocell skeletal muscle cell basal medium supplemented with growth factors, calf serum and P/S 1%) at 37° C. in a humidified atmosphere of 5% CO2, until 80% confluence. Glass cover slip substrates (12 mm diameter) were sterilised with UV light for 30 min and then coated with 3.6 μg of fibronectin (FN). After incubation with the FN coating for 1 h at RT, cells were then seeded at 40.000 cells/well (p-24 plate) in skeletal muscle cell basal medium.
as §2, §3
Cells were fixed with formalin 4% at the end of the culture for 30 minutes at 4° C. After fixing, cells were washed and conserved at 4° C. in DPBS. Starting with the fixed cells preserved at 4° C. in DPBS, samples were then rinsed with DPBS and permeabilised with DPBS/0.5% Triton X-100 at room temperature for 5 min. Samples were then incubated with sarcomeric α-actinin primary antibody (abcam, 1:200), muscle marker for immunofluorescence detection, in blocking buffer DPBS/2% BSA at 37° C. for 1 h or overnight at 4° C. […]
Cells were cultured and maintained in 75 cm^2 flasks with skeletal growth medium (Promocell skeletal muscle cell basal medium supplemented with growth factors, calf serum and P/S 1%) at 37° C. in a humidified atmosphere of 5% CO2, until 80% confluence. […] Myotube formation was evaluated after 8 days. […]

[4] = tested on: human wild type (WT) cells; assay: Myotube formation (sarcomeric α-actinin immunofluorescence) in wild type muscle cells; conditions: 8 days
Protocol: as §1, §2, §3, §4, §5

[5] = DMD, without fibronectin, bortezomib 2.7 10^−5 μg
[6] = DMD-FN, with fibronectin (3.6 μg coating), bortezomib 1.1 10^−4 μg
[7] = DMD-FN, with fibronectin (3.6 μg coating), bortezomib 2.7 10^−5 μg
[8] = DMD-FN, with fibronectin (3.6 μg coating), bortezomib 5.4 10^−5 μg
[9] = DMD-FN, with fibronectin (3.6 μg coating), bortezomib 5.4 10^−6 μg
[10] = DMD, without fibronectin, bortezomib 1.1 10^−4 μg
[11] = DMD, without fibronectin, bortezomib 5.4 10^−5 μg
[12] = DMD, without fibronectin, bortezomib 5.4 10^−6 μg
[13] = DM1, without fibronectin, bortezomib 1.1 10^−4 μg
[14] = DM1, without fibronectin, bortezomib 2.7 10^−5 μg
[15] = DM1, without fibronectin, bortezomib 5.4 10^−5 μg
[16] = DM1, without fibronectin, bortezomib 5.4 10^−6 μg
[17] = DM1-FN, with fibronectin (3.6 μg coating), bortezomib 1.1 10^−4 μg
[18] = DM1-FN, with fibronectin (3.6 μg coating), bortezomib 2.7 10^−5 μg
[19] = DM1-FN, with fibronectin (3.6 μg coating), bortezomib 5.4 10^−5 μg
[20] = DM1-FN, with fibronectin (3.6 μg coating), bortezomib 5.4 10^−6 μg
[21] = bortezomib added in the culture medium, 8 days
[22] = WT, without fibronectin, bortezomib 1.1 10^−4 μg
[23] = WT, without fibronectin, bortezomib 2.7 10^−5 μg
[24] = WT, without fibronectin, bortezomib 5.4 10^−5 μg
[25] = WT, without fibronectin, bortezomib 5.4 10^−6 μg
[26] = WT-FN, with fibronectin (3.6 μg coating), bortezomib 1.1 10^−4 μg
[27] = WT-FN, with fibronectin (3.6 μg coating), bortezomib 2.7 10^−5 μg
[28] = WT-FN, with fibronectin (3.6 μg coating), bortezomib 5.4 10^−5 μg
[29] = WT-FN, with fibronectin (3.6 μg coating), bortezomib 5.4 10^−6 μg

SMILES: CC(C)C[C@H](NC(=O)[C@H](Cc1ccccc1)NC(=O)c1cnccn1)B(O)O [bortezomib, ((R)-3-Methyl-1-((S)-3-phenyl-2-(pyrazine-2-carboxamido)propanamido)butyl)boronic acid]
- % of cell differentiation (human DMD cells [1]; [5]): 31%
- % of cell differentiation (human DMD cells [1]; [6]): 17%
- myotube diameter (human DMD cells [1]; [6]): 17 μm
- myotube diameter (human DMD cells [1]; [7]): 72 μm
- % of cell differentiation (human DMD cells [1]; [8]): 61%
- % of cell differentiation (human DMD cells [1]; [9]): 47%
- myotube diameter (human DMD cells [1]; [9]): 45 μm
- % of cell differentiation (human DMD cells [2]; [10]): 1%
- myotube diameter (human DMD cells [2]; [10]): 2 μm
- myotube diameter (human DMD cells [2]; [5]): 27 μm
- % of cell differentiation (human DMD cells [2]; [11]): 5%
- myotube diameter (human DMD cells [2]; [11]): 5 μm
- % of cell differentiation (human DMD cells [2]; [12]): 9%
- myotube diameter (human DMD cells [2]; [12]): 15 μm
- % of cell differentiation (human DMD cells [2]; [7]): 80%
- myotube diameter (human DMD cells [2]; [8]): 46 μm
- % of cell differentiation (human DM1 cells; [13]): 1%
- myotube diameter (human DM1 cells; [13]): 4 μm
- % of cell differentiation (human DM1 cells; [14]): 13%
- myotube diameter (human DM1 cells; [14]): 11 μm
- % of cell differentiation (human DM1 cells; [15]): 0.5%
- myotube diameter (human DM1 cells; [15]): 4 μm
- % of cell differentiation (human DM1 cells; [16]): 14%
- myotube diameter (human DM1 cells; [16]): 11 μm
- % of cell differentiation (human DM1 cells; [17]): 1%
- myotube diameter (human DM1 cells; [17]): 23 μm
- % of cell differentiation (human DM1 cells; [18]): 55%
- myotube diameter (human DM1 cells; [18]): 79 μm
- % of cell differentiation (human DM1 cells; [19]): 54%
- myotube diameter (human DM1 cells; [19]): 130 μm
- % of cell differentiation (human DM1 cells; [20]): 37%
- myotube diameter (human DM1 cells; [20]): 44 μm
- myotube diameter [3, 21]: importantly increased myotube diameter
- myotube differentiation [3, 21]: enhanced myotube differentiation
- myotube formation and diameter ([3]; dystrophic cells, bortezomib together with FN): restored myotube formation (fusion capability) and improved myotube diameter
- % of cell differentiation [4, 22]: 0%
- myotube diameter [4, 22]: 0 μm
- % of cell differentiation [4, 23]: 55%
- myotube diameter [4, 23]: 60 μm
- % of cell differentiation [4, 24]: 45%
- myotube diameter [4, 24]: 48 μm
- % of cell differentiation [4, 25]: 47%
- myotube diameter [4, 25]: 32 μm
- % of cell differentiation [4, 26]: 39%
- myotube diameter [4, 26]: 63 μm
- % of cell differentiation [4, 27]: 79%
- myotube diameter [4, 27]: 319 μm
- % of cell differentiation [4, 28]: 72%
- myotube diameter [4, 28]: 270 μm
- % of cell differentiation [4, 29]: 70%
- myotube diameter [4, 29]: 122 μm
